Reference: US12071404B2, “Aza (indole)-, benzothiophene-, and benzofuran-3-sulfonamides” (UCB Pharma GmbH, priority 2016, dated 2024)

Legend:
GPR17 [1] = molecular target: T1, GPR17 (Homo sapiens, UniProt Q13304); experiment: Calcium mobilization functional assay (GPR17 Ca2+ assay); type: cell-based; parameters: host or cells: Flp-In T-REx CHO; details: CHO hGPR17 cells, inhibition of 50 nM MDL29,951, Calcium 5 dye, FLIPR; read-out: Ca2+ assay pIC50 (converted)
Procedure, shortened: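 pIC50 values were fitted with a 4-parameter logistic curve. They reflect test-compound inhibition of cytosolic Ca2+ release evoked by 50 nM MDL29,951, tracked as Calcium 5 fluorescence at room temperature. Cells were CHO Flp-In T-REx stably carrying human GPR17, induced with doxycycline 1 μg/mL for 16-20 h.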

GPR17 [2] = molecular target: T1, GPR17; experiment: cAMP accumulation functional assay (HTRF, Schild analysis); type: cell-based; parameters: host or cells: Flp-In T-REx CHO; details: CHO hGPR17 cells, Schild analysis vs MDL29,951, 5 μM forskolin, read-out: cAMP assay pA2 (converted)
Experimental: Flp-In T-REx CHO cells stably expressing human GPR17 receptor (CHO hGPR17) from Evi Kostenis' lab (Bonn University, Germany) were cultured at 37° C. in a humidified atmosphere of 5% CO2. Cells were grown in DMEM with Nutrient Mixture F-12 supplemented with hygromycin B (500 μg/mL) and blasticidin (30 μg/mL). Expression from the Flp-In locus was induced by treatment with doxycycline (1 μg/mL) for 16-20 h prior assays.
GPR17 activation can also recruit Gi-type G-protein signaling, resulting in a decrease of intracellular cyclic adenosine monophosphate (cAMP). Intracellular cAMP changes can be measured using the HTRF cAMP dynamic assay kit from CisBio (Codolet, France). Using homogenous time-resolved fluorescence technology (HTRF), the assay is based on competition between native cAMP produced by cells and cAMP labelled with the dye d2. The tracer binding was determined by an anti-cAMP antibody labeled with cryptate.
CHO hGPR17 were detached with PBS containing EDTA and dispatched in black 384-well plates with 5,000 cells per well. Cells were first incubated for 30 minutes at room temperature in HBSS Hepes (pH 7.4) containing vehicle or varying concentrations of test GPR17 antagonist/inverse agonist compounds. […] After 60 minutes incubation at room temperature, the reaction is terminated and the cells lysed by adding the d2 detection reagent and the cryptate reagent in 10 μL lysis buffer each according to manufacturer's instructions. After 60 minutes incubation, changes in cAMP concentrations are measured according to manufacturer's instructions using an Envision plate reader with laser excitation. All incubations were performed in duplicate. Data was analyzed using GraphPad Prism software using the 4-parameter logistic equation to measure MDL29,951 pEC50s in absence and presence of GPR17 antagonist/inverse agonist test compounds. Dose ratio (DR) were plotted against antagonist concentrations and Schild analysis provided estimated affinity pA2 of GPR17 antagonist/inverse agonist test compounds.
The activities of the Example compounds tested are depicted in the table below. The activity ranges A, B and C refer to pA2 values in the cAMP assay as follows: “A”: pA2<7.5, “B”: pA2 7.5<x≤8.5, “C”: pA2>8.5.

T1 sequence (Q13304 whole entry): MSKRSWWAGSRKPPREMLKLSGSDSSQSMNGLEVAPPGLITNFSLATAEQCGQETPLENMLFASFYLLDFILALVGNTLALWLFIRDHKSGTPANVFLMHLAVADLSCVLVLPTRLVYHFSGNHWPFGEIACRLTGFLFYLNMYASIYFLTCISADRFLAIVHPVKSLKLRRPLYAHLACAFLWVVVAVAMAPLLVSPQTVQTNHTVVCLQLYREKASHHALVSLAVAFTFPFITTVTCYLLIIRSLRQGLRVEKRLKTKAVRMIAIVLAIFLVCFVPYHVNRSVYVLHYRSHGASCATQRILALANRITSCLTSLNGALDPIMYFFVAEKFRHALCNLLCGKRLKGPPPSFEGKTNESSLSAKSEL

SMILES	IC50 (GPR17 [1]) [nM]	Kb (GPR17 [2]) [nM]
COc1nc(NS(=O)(=O)c2c[nH]c3c(OC)c(Cl)ccc23)c(F)cc1Cl [Compound I-309, 6-chloro-N-(5-chloro-3-fluoro-6-methoxypyridin-2-yl)-7-methoxy-1H-indole-3-sulfonamide]	< 3.16	< 3.16
O=S(=O)(Nc1cc(F)cc(F)c1Cl)c1c[nH]c2cc(Cl)ccc12 [Compound I-55, 6-chloro-N-(2-chloro-3,5-difluorophenyl)-1H-indole-3-sulfonamide]	3.16 to 31.6	3.16 to 31.6
COc1cc(Br)cnc1NS(=O)(=O)c1c[nH]c2cc(Cl)ccc12 [Compound I-129, N-(5-bromo-3-methoxypyridin-2-yl)-6-chloro-1H-indole-3-sulfonamide]	3.16 to 31.6	3.16 to 31.6
O=S(=O)(Nc1cccc2nsnc12)c1c[nH]c2c1ccc1ccccc12 [Compound I-155, N-(2,1,3-benzothiadiazol-4-yl)-1H-benzo[g]indole-3-sulfonamide]	3.16 to 31.6	< 3.16
O=S(=O)(Nc1ccc(Br)cc1F)c1c[nH]c2cc(Cl)ccc12 [Compound I-212, N-(4-bromo-2-fluorophenyl)-6-chloro-1H-indole-3-sulfonamide]	3.16 to 31.6	< 3.16
O=S(=O)(Nc1cc2nsnc2cc1F)c1c[nH]c2cc(Br)ccc12 [Compound I-193, 6-bromo-N-(6-fluoro-2,1,3-benzothiadiazol-5-yl)-1H-indole-3-sulfonamide]	< 3.16	< 3.16
O=S(=O)(Nc1cc(F)c(Br)cc1F)c1c[nH]c2cc(Cl)ccc12 [Compound I-213, N-(4-bromo-2,5-difluorophenyl)-6-chloro-1H-indole-3-sulfonamide]	< 3.16	< 3.16
COc1ccc2c(S(=O)(=O)Nc3cc(F)c(Cl)cc3F)c[nH]c2n1 [Compound I-281, N-(4-chloro-2,5-difluorophenyl)-6-methoxy-1H-pyrrolo[2,3-b]pyridine-3-sulfonamide]	3.16 to 31.6	3.16 to 31.6
O=S(=O)(Nc1cc(OC(F)F)c(Cl)cc1F)c1c[nH]c2cc(Cl)ccc12 [Compound I-195, 6-chloro-N-[4-chloro-5-(difluoromethoxy)-2-fluorophenyl]-1H-indole-3-sulfonamide]	3.16 to 31.6	< 3.16
COc1nc(NS(=O)(=O)c2c[nH]c3cc(Cl)ccc23)c(F)cc1F [Compound I-345, 6-chloro-N-(3,5-difluoro-6-methoxypyridin-2-yl)-1H-indole-3-sulfonamide]	3.16 to 31.6	3.16 to 31.6
COc1cc(C#N)c(F)cc1NS(=O)(=O)c1c[nH]c2cc(Cl)ccc12 [Compound I-286, 6-chloro-N-(4-cyano-5-fluoro-2-methoxyphenyl)-1H-indole-3-sulfonamide]	< 3.16	< 3.16
COc1nc(NS(=O)(=O)c2c[nH]c3c(F)c(Cl)c(F)cc23)c(F)cc1Cl [Compound I-340, 6-chloro-N-(5-chloro-3-fluoro-6-methoxypyridin-2-yl)-5,7-difluoro-1H-indole-3-sulfonamide]	3.16 to 31.6	3.16 to 31.6
O=S(=O)(Nc1cc(F)c(I)cc1F)c1c[nH]c2cc(Cl)ccc12 [Compound I-308, 6-chloro-N-(2,5-difluoro-4-iodophenyl)-1H-indole-3-sulfonamide]	< 3.16	< 3.16
N#Cc1ccc(NS(=O)(=O)c2c[nH]c3cc(Br)ccc23)cc1 [Compound I-134, 6-bromo-N-(4-cyanophenyl)-1H-indole-3-sulfonamide]	< 3.16	< 3.16
O=S(=O)(Nc1cccc2nsnc12)c1c[nH]c2cc(Br)ccc12 [Compound I-110, N-(2,1,3-benzothiadiazol-4-yl)-6-bromo-1H-indole-3-sulfonamide]	< 3.16	< 3.16
COc1nc(NS(=O)(=O)c2c[nH]c3c2ccc2cccnc23)c(F)cc1Cl [Compound I-328, N-(5-chloro-3-fluoro-6-methoxypyridin-2-yl)-1H-pyrrolo[3,2-h]quinoline-3-sulfonamide]	< 3.16	< 3.16

SMILES	IC50 (GPR17 [1]) [nM]	Kb (GPR17 [2]) [nM]
O=S(=O)(Nc1cccc2c1OCO2)c1c[nH]c2cc(Cl)ccc12 [Compound I-25, N-(1,3-benzodioxol-4-yl)-6-chloro-1H-indole-3-sulfonamide]	< 3.16	3.16 to 31.6
Cc1ccc2c(S(=O)(=O)Nc3ccc(Cl)cc3F)c[nH]c2c1 [Compound I-174, N-(4-chloro-2-fluorophenyl)-6-methyl-1H-indole-3-sulfonamide]	3.16 to 31.6	3.16 to 31.6
O=S(=O)(Nc1ccc(C(F)(F)F)cc1F)c1c[nH]c2cc(Cl)ccc12 [Compound I-299, 6-chloro-N-[2-fluoro-4-(trifluoromethyl)phenyl]-1H-indole-3-sulfonamide]	3.16 to 31.6	< 3.16
O=S(=O)(Nc1cc(F)c(OCC2CC2)cc1F)c1c[nH]c2cc(Cl)ccc12 [Compound I-260, 6-chloro-N-[4-(cyclopropylmethoxy)-2,5-difluorophenyl]-1H-indole-3-sulfonamide]	3.16 to 31.6	3.16 to 31.6
N#Cc1ccc(NS(=O)(=O)c2c[nH]c3cc(Cl)c(Br)cc23)c(F)c1 [Compound I-343, 5-bromo-6-chloro-N-(4-cyano-2-fluorophenyl)-1H-indole-3-sulfonamide]	3.16 to 31.6	< 3.16
O=S(=O)(Nc1cc(F)c(Cl)cc1F)c1c[nH]c2cc3c(cc12)OCO3 [Compound I-271, N-(4-chloro-2,5-difluorophenyl)-5H-[1,3]dioxolo[4,5-f]indole-7-sulfonamide]	< 3.16	< 3.16
O=c1[nH]c2cccc(NS(=O)(=O)c3c[nH]c4cc(Cl)ccc34)c2o1 [Compound I-301, 6-chloro-N-(2-oxo-2,3-dihydro-1,3-benzoxazol-7-yl)-1H-indole-3-sulfonamide]	3.16 to 31.6	3.16 to 31.6
O=S(=O)(Nc1cccc2c1OCO2)c1c[nH]c2nc(Cl)ccc12 [Compound I-96, N-(1,3-benzodioxol-4-yl)-6-chloro-1H-pyrrolo[2,3-b]pyridine-3-sulfonamide]	3.16 to 31.6	> 31.6
O=S(=O)(Nc1cc(F)c(Br)cc1F)c1c[nH]c2c1ccc1cccnc12 [Compound I-305, N-(4-bromo-2,5-difluorophenyl)-1H-pyrrolo[3,2-h]quinoline-3-sulfonamide]	< 3.16	< 3.16
O=S(=O)(Nc1ccc(S(F)(F)(F)(F)F)cc1F)c1c[nH]c2nc(Cl)ccc12 [Compound I-295, 6-chloro-N-[2-fluoro-4-(pentafluoro-lambda-6-sulfanyl)phenyl]-1H-pyrrolo[2,3-b]pyridine-3-sulfonamide]	3.16 to 31.6	3.16 to 31.6
COc1ccc2c(S(=O)(=O)Nc3nc(OC)c(Cl)cc3F)c[nH]c2c1Cl [Compound I-356, 7-chloro-N-(5-chloro-3-fluoro-6-methoxypyridin-2-yl)-6-methoxy-1H-indole-3-sulfonamide]	3.16 to 31.6	3.16 to 31.6
O=S(=O)(Nc1nc(F)ccc1F)c1c[nH]c2cc(Cl)ccc12 [Compound I-200, 6-chloro-N-(3,6-difluoropyridin-2-yl)-1H-indole-3-sulfonamide]	3.16 to 31.6	3.16 to 31.6
COc1nc(NS(=O)(=O)c2csc3cc(Cl)ccc23)c(F)cc1Cl [Compound I-314, 6-chloro-N-(5-chloro-3-fluoro-6-methoxypyridin-2-yl)-1-benzothiophene-3-sulfonamide]	3.16 to 31.6	3.16 to 31.6
COc1nc(NS(=O)(=O)c2c[nH]c3c(Cl)c(F)ccc23)c(F)cc1Cl [Compound I-357, 7-chloro-N-(5-chloro-3-fluoro-6-methoxypyridin-2-yl)-6-fluoro-1H-indole-3-sulfonamide]	3.16 to 31.6	3.16 to 31.6
COc1nc(NS(=O)(=O)c2c[nH]c3cc(Cl)c(F)cc23)c(F)cc1Cl [Compound I-339, 6-chloro-N-(5-chloro-3-fluoro-6-methoxypyridin-2-yl)-5-fluoro-1H-indole-3-sulfonamide]	< 3.16	3.16 to 31.6
